In a melting point compilation (Tetko et al.; mined from patent text by program, amines drawn as free bases though some values may be those of a salt):

Row | melting point [°C] | SMILES
1 | 75 to 77 | CCOC(=O)COc1c(C)cc(C)c2c1CCC2=O
2 | 207 to 209 | O=[N+]([O-])c1ccc(C=[N+]([O-])c2cccc(CO)c2)cc1
3 | 136 to 138 | CCOC(=O)c1c(Cl)c2cc(Oc3ccc(C(F)(F)F)cc3)ccc2n1-c1ccc(OC(C)C)cc1
4 | 110 to 112 | Nc1cccc(CC(=O)NCc2ccccc2Br)c1
5 | 202 to 204 | CCOC(=O)c1cnc2c(C=O)cc(CN3CCOCC3)cc2c1O
6 | 155 | Cc1nc2n(c(=O)c1CCO)CCCS2
7 | 74 to 77 | COc1cc(N)c(Cl)cc1C(=O)NCC1CCN(CCCCCNC(=O)c2nn(C)c3ccccc23)CC1
8 | > 300 | Oc1nc2ccc3c(c2nc1O)CCCC3
9 | > 250 | CCCn1c(COCC)nc2c(N)nc3cc(O)ccc3c21
10 | 75 to 77 | O=C(NC/C=C\COc1cc(CN2CCCCC2)ccn1)c1ccc(Cl)s1
11 | 72 to 74 | CCOC(=O)[C@H](C)Oc1ccc2cc(Br)ccc2c1
12 | 29 to 33 | C[C@H]1CCCC(C)(C)[C@@H]1[C@H](O)c1ccc(OC(F)(F)F)cc1
13 | 112 | CC1(C2CCCC2)Cc2cc(OCCCC#N)c(Cl)c(Cl)c2C1=O (stereo not given)
14 | > 300 | O=C(Nc1nnn[nH]1)c1csc(-c2ncccc2O)n1
15 | 199 to 200 | CCCCCC(c1ccccc1C(F)(F)F)C(C(N)=O)c1cc(C(=O)O)ccc1C(C)(C)C (stereo not given)
16 | 217 to 219 | CN(c1ccc(Cl)cc1)S(=O)(=O)c1c[nH]cn1
17 | 105 to 135 | Nc1ccccc1NC(=O)c1cc2cccc(OCc3ccccn3)c2o1
18 | 53 to 54 | CCOC(C#N)c1ccc2ccccc2c1 (stereo not given)
19 | 47 to 48 | CNC(=O)[C@@H]1C=CCN1C(=O)OC(C)(C)C
20 | 75 to 77 | CCOc1ccc(N=Cc2cc(OC)c(OC)c(OC)c2)cc1
21 | 137 to 139 | O=C1C(=Cc2cccc(Cl)c2)SC(c2cccc(Cl)c2)N1CCCN1CCCCC1 (stereo not given)
22 | 205 to 207 | COC(=O)c1cc(S(C)(=O)=O)c(NS(=O)(=O)c2sc3ccc(Cl)cc3c2C)cc1C
23 | 136 to 140 | CCOC(=O)c1c(C)nn2ccc3c(c12)C(CC#N)CC3 (stereo not given)
24 | 139 to 141 | CCC1Cc2cc(OCC#N)c(Cl)c(Cl)c2C1=O (stereo not given)

Row | melting point [°C] | SMILES
25 | 168 to 171 | O=c1[nH]c(NCCCNc2ccccn2)ncc1Cc1ccc(Cl)cc1
26 | 80 to 100 | CCOC(=O)C(Cc1cccc2cccnc12)(NC(=O)CC)C(=O)OCC
27 | 174 to 176 | CCC(C)C(NC(c1ccccc1)c1ccccc1)P(O)O (stereo not given)
28 | 58 to 59.5 | CC(=O)C(=[N+]=[N-])C(=O)CCc1ccc(S(=O)(=O)Cl)cc1
29 | 187 to 190 | Nc1nc(-c2ccccc2)c2ncn(C3OC(CO)C(O)C3O)c2n1 (stereo not given)
30 | 152 to 154 | COc1ccc(C2=NN(C3CCN(C(=O)c4ccccc4)CC3)C(=O)CC2)cc1OC
31 | 206 to 207 | Cc1cc(N=Nc2ccccn2)cc(C)c1-c1ccc(-c2c(C)cc(N=Nc3ccccn3)cc2C)o1
32 | 192 to 193 | CCOC(=O)c1cnn(-c2ccc(OC)c(C#N)c2)c1
33 | 171 to 174 | COc1c(Cl)ccc(-c2cc(N)c(Cl)c(C(=O)NOCc3ccc(C)cc3)n2)c1F
34 | 203 to 204 | CS(=O)(=O)c1ccc(-c2cnn(-c3cccc(Cl)c3)c(=O)c2Cl)cc1
35 | 153 to 154 | CCN(CC)CCNC(=O)c1cc(Cl)c(N)cc1OCC(=O)c1ccccc1
36 | 228 to 230 | CCOCc1nc2c(N)nc3cc(OCc4cccc(N)c4)ccc3c2n1CC(C)C
37 | 92 | CC(c1ncnc(Cl)c1F)C(O)(Cn1cncn1)c1ccc(F)cc1F (stereo not given)
38 | 81 to 83 | CC(=O)Nc1cccnc1Cl
39 | 110 to 111 | O=C1c2ccccc2C(=O)N1CCCCOc1ccc(-c2ccccc2)cc1
40 | 128 | O=Cc1ccccc1-n1nnnc1CC(=O)C(F)(F)F
41 | 101 to 102 | Cc1ccc(S(=O)(=O)NC(C)C(=O)Cl)cc1 (stereo not given)
42 | 164 to 166 | CCOc1c(Cl)ccc(-c2nc(C(=O)OC)c(Cl)c(S(C)(=O)=O)n2)c1F
43 | 136 to 137 | CNC1CCC2C3CCc4cc(OC)ccc4C3CCC12C (stereo not given)
44 | 135 to 150 | O=C(O)c1cc(SCC(=O)c2ccccc2)cc(C(F)(F)F)c1
45 | 156 | COCC(=O)C1CCC2C3CCC4CC(=O)CCC4(C)C3CCC12C (stereo not given)
46 | 87.5 to 89 | CCOC(=O)c1cc(-c2ccc(Cl)cc2)ns1
47 | 115 | CSc1c(N)nc(N2CCOCC2)nc1Cl
48 | 118 to 120 | CC(C#N)Oc1cccc(C=Cc2ccc3ccc(Cl)cc3n2)c1 (stereo not given)

Row | melting point [°C] | SMILES
49 | 147 | O=C(Nc1ccc(I)cc1)c1ccccc1-c1ccc(C(F)(F)F)cc1
50 | 280 | CC(C)C(=O)Nc1ccc(-c2c[nH]c(=O)cn2)cc1
51 | 228 to 230 | OCc1c(Cl)c(Cl)c(Cl)c(CO)c1Cl
52 | 170 to 172 | CCCCC(Cn1cncn1)(C(N)=O)c1ccc(Cl)cc1Cl (stereo not given)
53 | 251 to 252 | CC(C)(C)C(NC(=O)c1cccc(-c2ccco2)c1)Nc1c(Nc2cccnc2)c(=O)c1=O (stereo not given)
54 | 40 | O=C(C=Cc1ccccc1O)OCCc1ccccc1
55 | 166 to 167 | FC(F)C(F)(F)Sc1nc(-c2ccco2)c(-c2ccco2)[nH]1
56 | 208 | CCOc1ccc(C(=O)Nc2ccc3ccc(Cl)nc3n2)cc1
57 | 180 to 183 | CCCCOc1cc(C(=O)O)cc(NC=O)c1C(=O)c1ccccc1
58 | 241 to 242 | N#CCNC(=O)c1ncn2c1CN(C(=O)N1CCCC1)c1ccccc1-2
59 | 103 to 104 | O=C(/C=C/C=C(c1cccc(F)c1)c1cccc(F)c1)NCCCCc1cccnc1
60 | 158 to 159 | CC(=O)NC[C@H]1CN(c2ccc3c(c2)C[C@@H](C)N3C=O)C(=O)O1
61 | 99 to 100 | COc1cc(N)c(OC)c(OC)c1OC
62 | 59 to 60 | CCOc1ccccc1NC(=O)C(C)(C)CCCOc1cc(C)ccc1C
63 | 159 to 160 | COc1ccccc1-c1cc(C(F)(F)F)nn1-c1ccc(S(N)(=O)=O)c(F)c1
64 | 290 to 293 | COc1ccc(-c2nnc3c4ccccc4c(OC4CCNC4=O)nn23)cc1 (stereo not given)
65 | 134 to 135 | COc1ccc(C(=O)C=C2CCCN2)cc1
66 | 136 | CC(C(=O)c1ccc(Cl)cc1)N1CCC(O)(Cc2ccccc2)CC1 (stereo not given)
67 | 206 to 207 | CC(C)(C)Sc1c(CC(C)(C)C(=O)O)n(Cc2ccc(Cl)cc2)c2ccc(OCc3cccc(Cl)n3)cc12
68 | 46 to 47 | CCc1cc(OC)c(C=O)cc1OC
69 | 234 | O=c1cc(OCc2ccccc2)c2ccc(O)cc2o1
70 | 172 to 175 | CNC(=O)c1c(Cl)ccc(Cl)c1OC
71 | 139 | Oc1ccccc1Cc1cccc2[nH]ccc12
72 | 240 to 241 | O=C(Cn1c(-c2ccc(Cl)cc2)nc2cccnc21)NC1CCCCC1

Row | melting point [°C] | SMILES
73 | 142 to 155 | CC(=O)NCCNCc1ccc(-c2cc3ncnc(Nc4ccc5[nH]ccc5c4)c3s2)cc1
74 | 229 to 230 | O=C(O)c1cn(-c2cccc(I)c2)cn1
75 | 68 to 69 | CC(C)CNS(=O)(=O)CCCCl
76 | > 300 | COc1ccc2c(c1)c(-c1cc3c(C(=O)O)ccnc3[nH]1)cn2C
77 | 124 | CC(C)[C@@H](Cc1ccc(C(C)(C)C)cc1)C(=O)N1C(=O)OC[C@H]1Cc1ccccc1
78 | 154 to 156 | COc1ccc(-c2nc(S(=O)(=O)c3ccc(C)cc3)n(Cc3ccccc3)c2-c2ccc(OC)cc2)cc1
79 | 215 to 225 | O=C(O)c1cc(-n2c(-c3cccc(C(F)(F)F)c3)cc3c2CCCC3)ccc1O
80 | 160 to 161 | CCCc1nn(C)c2c(=S)[nH]c(-c3ccccc3OC)nc12
81 | 164 to 166 | O=C1NCC1NC(=O)C(C(=O)OCc1ccccc1)c1ccccc1 (stereo not given)
82 | 209 to 211 | COCCNC(=O)c1c(O)c2cc(Cl)ccc2n(C)c1=N
83 | 165 to 166 | CC1(COc2ccc(N3CCC(Oc4ccc(OC(F)(F)F)cc4)CC3)cc2)Cn2cc([N+](=O)[O-])nc2O1 (stereo not given)
84 | 40 to 42 | CSc1nc(C)cc(OC(F)F)n1
85 | 115 to 118 | COCCON=C(C1=C(O)C(=O)N(c2ccc(C)nn2)C1c1ccc(OC(F)(F)F)cc1)c1ccc(C(C)C)cc1 (stereo not given)
86 | 273 to 275 | CSc1cnc2c(-c3ccccc3)csc2c1O
87 | 142 to 146 | CC12CC(=O)C3C(CCC4CC(O)CCC43C)C1CCC2C(=O)OCC#N (stereo not given)
88 | 168 | CCc1nc(NC(=S)NCCc2ccccc2Oc2ccccc2)cs1
89 | 186 | CC(C)N1CCC(Nc2nc3cncnc3n2Cc2ccc(F)cc2)CC1
90 | 97 to 99 | CCc1cc(C(=O)O)c(C)o1
91 | 150 to 156 | CCCC(CCC)C(=O)N[C@H](C(=O)N[C@H]1CCO[C@@H]1OC)C(C)C
92 | 120 to 122 | N#CC(C=N)CC(=O)c1ccccc1F (stereo not given)
93 | 124 to 125 | COC=C(C(=O)OC)c1csc2ccc(CBr)cc12
94 | 285 to 287 | O=C(Nc1nc(-c2ccccc2)cs1)Nc1nc(-c2ccccc2)cs1
95 | 112 | O=C(Nc1cn[nH]c1-c1ccc(F)cc1)c1c(F)cccc1F
96 | 211 to 213 | N#Cc1cnc2cnc(F)cc2c1Nc1ccc(Oc2ccccc2)cc1

Row | SMILES | melting point [°C]
97 | C[C@H](Cc1ccc2c(c1)cc(C(=O)O)n2CC1CC1)NC[C@H](O)c1cccc(Cl)c1 | 207 to 209
98 | O=C(c1nn(-c2ccc(F)cc2F)c2c1C1CCC2C1)N1CCCc2ccccc21 (stereo not given) | 103 to 107
99 | CCCCCCCCCCCC[C@]1(C)OO[C@@H]2C[C@H]1CC(=O)[C@@H]2C | 35
100 | ClCc1nc2cc(Br)ccc2s1 | 107
101 | CC#CC1(O)CCC2C3CCC4=CC(=O)CCC4C3CCC21CC (stereo not given) | 124 to 125
102 | COC(=O)c1c(N)ncn1C(c1ccccc1)c1ccccc1 | 199 to 201
103 | CN(C)CCc1c[nH]c2ccc(C=CC(=O)NCc3ccc([N+](=O)[O-])cc3)cc12 | 177 to 187
104 | CC[C@]12CC[C@H]3[C@@H](CC(=C(Br)Br)C4=CC(=O)CC[C@@H]43)[C@@H]1CCC2=O | 149 to 153
105 | N=C(N[N+](=O)[O-])N1CCCC1 | 188 to 191
